Laboratory results reported in ChEMBL document CHEMBL1146572, “Isolation and characterization of miscellaneous secondary metabolites of Deprea subtriflora” (J Nat Prod, 2003).

Experiments:
[1] = Growth inhibition of mouse Hepa-1c1c7 cells; type: cell-based
[2] = Chemoprevention index, ratio of IC50 for mouse Hepa-1c1c7 cells to CD for NADPH:quinone reductase specific activity in mouse Hepa-1c1c7 cells; type: functional

C[C@H]1CC([C@](C)(O)[C@@]2(O)CC[C@H]3[C@@H]4C[C@H]5O[C@]56[C@@H](O)C=CC(=O)[C@]6(C)[C@H]4CC[C@@]32C)OC(=O)[C@@H]1C (stereo partly specified) [PHILADELPHICALACTONE A]
IC50 [1]: 0.47 µM | Ratio [2]: 11.8

C[C@H]1C(=O)OC(C2O[C@]34C[C@H]5[C@@H](C[C@H]6O[C@H]7CC(=O)[C@@]5(C)[C@@]6(O)C7=O)[C@@H]5C[C@@H](O3)[C@@H]([C@@H]54)[C@@]2(C)O)[C@@H]1C (stereo partly specified) [SUBTRIFLORALACTONE K]
IC50 [1]: 4.8 µM | Ratio [2]: 13.3

C[S+]([O-])CCCCN=C=S (stereo unspecified) [SULFORAPHANE]
IC50 [1]: 11.7 µM | Ratio [2]: 23.9
